The results in this text go back to PubChem BioAssay AID623864 (Southern Research Specialized Biocontainment Screening …, 2012).

SMILES strings stand for the structures. Calls of active or inactive are those of the source. The rule behind the calls is not given here.

As a reminder, the CC50 is the concentration giving 50% cytotoxicity. A word on the viability: it is a read-out of living cells in per cent, often relative to untreated cells.

One assay deals with VeroE6 cell viability, cytotoxicity CC50. The assay is described as follows: VeroE6 cell cytotoxicity, dose response, cytotoxicity control for flavivirus guanylyltransferase probe project (AID 623864).
Conditions: not given
As for `O=S(=O)(Nc1cc(SCc2ccccc2)c(O)c2ccccc12)c1ccc(Cl)cc1`, the CC50 was 32.3 µM.

Regarding `O=C(O)CSc1cc(NS(=O)(=O)c2ccc(Br)cc2)c2ccccc2c1O`, the CC50 is 21.6 µM. Regarding `O=[N+]([O-])c1cccc(S(=O)(=O)Nc2cc(SCc3ccccc3)c(O)c3ccccc23)c1`, the CC50 is 14.4 µM.

Regarding `O=C(O)CSc1cc(NS(=O)(=O)c2ccc(Cl)cc2)c2ccccc2c1O`, the CC50 was 30.8 µM. On the same count and under the same terms, as for `O=C(O)CSc1cc(NS(=O)(=O)c2cccc3cccnc23)c2ccccc2c1O`, the figure is 19.2 µM; as for `COc1ccc(OC)c(S(=O)(=O)Nc2cc(SCC(=O)O)c(O)c3ccccc23)c1`, 29.7 µM.

For the molecule `O=C(O)CSc1cc(NS(=O)(=O)c2cccc([N+](=O)[O-])c2)c2ccccc2c1O`, the CC50 was 30.9 µM. As for `O=S(=O)(Nc1cc(Cl)c(O)c2ccccc12)c1ccc(F)cc1`, the 50% cytotoxic concentration (CC50) was 29.4 µM. `Cc1ccc(S(=O)(=O)Nc2cc(SCC(=O)O)c(O)c3ccccc23)cc1`: the CC50 is 27.6 µM. Regarding `O=C(O)CSc1cc(NS(=O)(=O)c2ccc(F)cc2)c2ccccc2c1O`, the CC50 was 20 µM.

For `Cc1cc(F)ccc1S(=O)(=O)Nc1cc(SCC(=O)O)c(O)c2ccccc12`, the CC50 was 21.6 µM. As to `Cc1ccc(S(=O)(=O)Nc2cc(Sc3nc(C)cc(C)n3)c(O)c3ccccc23)cc1`, the CC50 was 12.8 µM. Consider `O=S(=O)(Nc1cc(Sc2ncn[nH]2)c(O)c2ccccc12)c1ccc(F)cc1`, for which the CC50 was 31.7 µM.

For `O=[N+]([O-])c1cccc(S(=O)(=O)Nc2cc(Sc3nc4ccccc4s3)c(O)c3ccccc23)c1`, the CC50 is 7.37 µM. On the same count and under the same terms, as for `Cc1cc(C)c(S(=O)(=O)Nc2cc(SCC(=O)O)c(O)c3ccccc23)c(C)c1`, the figure is 12.6 µM.

System in the next assay: not listed separately
Described as above. The following applies: VeroE6 cell viability, cytotoxicity CC50; at 50 µM (top of the series).
In the case of `Cn1c(=O)c2[nH]c(-c3ccc(Cl)cc3)c(O)c2n(C)c1=O`, the viability is 72.3% (inactive).
